US20240010606A1, “FUMARATE DERIVATIVES AND THEIR MEDICAL USE” (Sitryx Therapeutics Limited, priority 2020, published 2024)
pEC50, pIC50: −log10 of the molar value. Where a name gives a salt, the structure may show the parent alone.

Tests used:
hepatocytes [1] = experiment: Hepatocyte stability assay, mouse; assay type: in vitro ADME; details: 10 μM compound
Excerpt: (§1) Biological Example 3—Hepatocyte Stability Assay
(§2) Defrosted cryo-preserved hepatocytes (viability >70%) are used to determine the metabolic stability of a compound via calculation of intrinsic clearance (CIint; a measure of the removal of a compound from the liver in the absence of blood flow and cell binding). Clearance data are particularly important for […] as they can be used in combination with in vivo data to predict the half-life and oral bioavailability of a drug.
(§3) The metabolic stability in hepatocytes assay involves a time-dependent reaction using both positive and negative controls. The cells must be pre-incubated at 37° C. then spiked with test compound (and positive control); samples taken at pre-determined time intervals are analysed to monitor the change in concentration of the initial drug compound over 60 minutes. A buffer incubation reaction (with no hepatocytes present) acts as a negative control and two cocktail solutions, containing compounds with known high and low clearance values (verapamil/7-hydroxycoumarin and propranolol/diltiazem), act as positive controls. • 1. The assay is run with a cell concentration of 0.5×10^6 cells/mL in Leibovitz buffer. • 2. All compounds and controls are run in duplicate. • 3. Compound concentration is 10 μM. • 4. All compounds and controls are incubated with both cells and buffer to show turnover is due to hepatic metabolism. • 5. All wells on the incubation plate will have 326.7 μL of either cells or buffer added. • 6. Prior to assay, cell and buffer-only incubation plates are preincubated for 10 mins at 37° C. • 7. The assay is initiated by adding compounds, 3.3 μL of 1 mM in 10% DMSO-90% Buffer; final DMSO concentration is 0.1%. • 8. Samples are taken at regular timepoints (0, 5, 10, 20, 40, 60 min) until 60 mins. • 9. Sample volume is 40 μL and it is added to 160 μL of crash solvent (acetonitrile with internal standard) and stored on ice. • 10. At the end of the assay, the crash plates are centrifuged at 3500 rpm for 20 mins at 4° C. • 11. 80 μL of clear supernatant is removed and mixed with 80 μL of deionised water before being analysed by LC-MS/MS.
(§4) Raw LC-MS/MS data are exported to, and analysed in, Microsoft Excel for determination of intrinsic clearance. The percentage remaining of a compound is monitored using the peak area of the initial concentration as 100%. Intrinsic clearance and half-life values are calculated using a graph of the natural log of percentage remaining versus the time of reaction in minutes. Half-life (min) and intrinsic clearance (CIint in μL min^−1 10^−6 cells) values are calculated using the gradient of the graph (the elimination rate constant, k) and Equations 1 and 2.

[2] = Hepatocyte stability assay, mouse; assay type: in vitro ADME; details: mouse, cryopreserved hepatocytes, 10 μM compound
Excerpt: as §1, §2, §3, §4

hepatocytes [3] = experiment: Hepatocyte stability assay, human; assay type: in vitro ADME; details: 10 μM compound
Excerpt: as §1, §2, §3, §4

[4] = Hepatocyte stability assay, human; assay type: in vitro ADME; details: cryopreserved hepatocytes, 10 μM compound
Excerpt: as §1, §2, §3, §4

IL-1β = experiment: THP-1 AlphaLISA IL-1β cytokine assay; assay type: cell-based; details: Homo sapiens, differentiated THP-1 cells
Protocol: (§5) Biological Example 1—THP-1 AlphaLISA IL-1β and IL-6 Cytokine Assay Measuring Inhibitory Effects on IL-1, and IL-6 Cytokine Output from THP-1s The cytokine inhibition profiles of compounds of formula (I) were determined in a differentiated THP-1 cell assay. All assays were performed in RPMI-1640 growth medium (Gibco), supplemented with 10% fetal bovine serum (FBS; Gibco), 1% penicillin-streptomycin and 1% sodium pyruvate unless specified otherwise. The IL-1β and IL-6 cytokine inhibition assays were each run in a background of differentiated THP-1 cells as described below. All reagents described were from Sigma-Aldrich unless specified otherwise. Compounds were prepared as 10 mM DMSO stocks. THP-1 cells were expanded as a suspension up to 80% confluence in appropriate growth medium. Cells were harvested, suspended, and treated with an appropriate concentration of phorbol 12-myristate 13-acetate (PMA) over a 72 hr period (37° C./5% CO2). Following 72 hrs of THP-1 cell incubation, cellular medium was removed and replaced with fresh growth media containing 1% of FBS. Working concentrations of compounds were prepared separately in 10% FBS treated growth medium and pre-incubated with the cells for 30 minutes (37° C./5% CO2). Following the 30 minute compound pre-incubation, THP-1s were treated with an appropriate concentration of LPS and the THP-1s were subsequently incubated for a 24 hr period (37° C./5% CO2). An appropriate final concentration of Nigericin was then dispensed into the THP-1 plates and incubated for 1 hour (37° C./5% CO2) before THP-1 supernatants were harvested and collected in separate polypropylene 96-well holding plates. Reagents from each of the IL-1β and IL-6 commercial kits (Perkin Elmer) were prepared and run according to the manufacturer's instructions. Subsequently, fluorescence signal detection in a microplate reader was measured (EnVision® Multilabel Reader, Perkin Elmer). Percentage inhibition was calculated per cytokine by normalizing the sample data to the high and low controls used within each plate (+/−LPS respectively). Percentage inhibition was then plotted against compound concentration and the 50% inhibitory concentration (IC50) was determined from the resultant concentration-response curve.

IL-6 = experiment: THP-1 AlphaLISA IL-6 cytokine assay; assay type: cell-based; details: Homo sapiens, THP-1, differentiated THP-1 cells
Protocol: as §5

NRF2 = NRF2 activation assay (DiscoverX PathHunter NRF2 translocation kit, U2OS cells); assay type: cell-based
Protocol: Biological Example 2—NRF2 Activation Assay Measuring Compound Activation Effects on the Anti-Inflammatory Transcription Factor NRF2 in DiscoverX PathHunter NRF2 Translocation Kit Potency and efficacy of compounds of formula (I) against the target of interest to activate NRF2 (nuclear factor erythroid 2-related factor 2) were determined using the PathHunter NRF2 translocation kit (DiscoverX). The NRF2 translocation assay was run using an engineered recombinant cell line, utilising enzyme fragment complementation to determine activation of the Keap1-NRF2 protein complex and subsequent translocation of NRF2 into the nucleus. Enzyme activity was quantified using a chemiluminescent substrate consumed following the formation of a functional enzyme upon PK-tagged NRF2 translocation into the nucleus. Additionally, a defined concentration of dimethyl fumarate was used as the ‘High’ control to normalise test compound activation responses to. U2OS PathHunter eXpress cells were thawed from frozen prior to plating. Following plating, U2OS cells were incubated for 24 hrs (37° C./5% CO2) in commercial kit provided cell medium. Following 24 hrs of U2OS incubation, cells were directly treated with an appropriate final concentration of compound. Following compound treatment, the U2OS plates were incubated for a further 6 hours (37° C./5% CO2) before detection reagent from the PathHunter NRF2 commercial kit was prepared and added to test plates according to the manufacturer's instructions. Subsequently, the luminescence signal detection in a microplate reader was measured (PHERAstar®, BMG Labtech). Percentage activation was calculated by normalising the sample data to the high and low controls used within each plate (+/−DMF). Percentage activation/response was then plotted against compound concentration and the 50% activation concentration (EC50) was determined from the plotted concentration-response curve.

[5] = Table 2, compounds of formula (II)
[6] = +GSH, normalised to dimethyl fumarate high control, Table 3
[7] = −GSH, normalised to dimethyl fumarate high control, Table 3
[8] = +GSH, Table 4, compounds of formula (II)
[9] = −GSH, Table 4, compounds of formula (II)

SMILES | CIint (hepatocytes [1]; Table 6) | half-life at 10 μM ([2]; Table 6, read-out: T½) [min] | CIint (hepatocytes [3]; Table 6) | half-life at 10 μM ([4]; Table 6, read-out: T½) [min] | pIC50 (IL-1β; [5]) | pIC50 (IL-6; [5]) | pEC50 (NRF2; +GSH, Table 3) | NRF2 activation Emax (NRF2; [6]) | pEC50 (NRF2; −GSH, Table 3) | NRF2 activation Emax (NRF2; [7]) | CIint (hepatocytes [1]; Table 5) | half-life at 10 μM ([2]; Table 5, read-out: T½) [min] | CIint (hepatocytes [3]; Table 5) | half-life at 10 μM ([4]; Table 5, read-out: T½) [min] | pIC50 (IL-1β; LPS then Nigericin, Table 1) | pIC50 (IL-6; LPS then Nigericin, Table 1) | pEC50 (NRF2; [8]) | NRF2 activation Emax (NRF2; [8]) | pEC50 (NRF2; [9]) | NRF2 activation Emax (NRF2; [9])
O=C(O)/C=C/C(=O)OC1(c2cc(F)c(C(F)(F)F)c(F)c2)CCC1 [Intermediate 29, (E)-4-(1-(3,5-difluoro-4-(trifluoromethyl)phenyl)cyclobutoxy)-4-oxobut-2-enoic acid] | +++ (+++ means >15-30) | 30 to 100 | ++++ (++++ means 5-15) | > 100 | > 5.22 | > 5.22 |  |  |  |  |  |  |  |  |  |  |  |  |  | 
O=C(O)/C=C/C(=O)OC(c1ccc(C(F)(F)F)cc1)C(F)(F)F (single isomer, unassigned) [Intermediate 44, (E)-4-oxo-4-(2,2,2-trifluoro-1-(4-(trifluoromethyl)phenyl)ethoxy)but-2-enoic acid] | + (+ means >110-277) | < 5 | ++ (++ means >30-110) | 5 to 29 | > 5.22 | > 5.22 |  |  |  |  |  |  |  |  |  |  |  |  |  | 
O=C(O)/C=C/C(=O)OC1(c2ccc(C(F)(F)F)cc2)CSC1 [Intermediate 17, (E)-4-oxo-4-((3-(4-(trifluoromethyl)phenyl)thietan-3-yl)oxy)but-2-enoic acid] | + (+ means >110-277) | 5 to 29 | ++ (++ means >30-110) | 5 to 29 | 4.52 to 5.22 | 4.52 to 5.22 |  |  |  |  |  |  |  |  |  |  |  |  |  | 
CC(CC(=O)O)OC(=O)/C=C/C(=O)OC1CCCCCCC1 (stereo not drawn) [Example 11, (E)-3-((4-(cyclooctyloxy)-4-oxobut-2-enoyl)oxy)butanoic acid] |  |  |  |  |  |  | 4.00 to 4.70 | + (+ means >17.1-99) | > 5.70 | ++++ (++++ means 200-250%) | + (+ means >277) | < 5 | +++ (+++ means 50-149) | 5 to 29 | > 5.60 |  |  |  |  | 
CCCCCC[C@@H](C)OC(=O)/C=C/C(=O)OCCC(=O)O [Example 14, (R,E)-3-((4-(octan-2-yloxy)-4-oxobut-2-enoyl)oxy)propanoic acid] |  |  |  |  |  |  | 4.70 to 5.22 | ++ (++ means 100-149) | 5.22 to 5.68 | +++ (+++ means 150-199%) | + (+ means >277) | < 5 | + (+ means >277) | < 5 | > 5.60 |  |  |  |  | 
C[C@@H](OC(=O)/C=C/C(=O)OC1CCCCCCC1)C(=O)O [Example 12, (R,E)-2-((4-(cyclooctyloxy)-4-oxobut-2-enoyl)oxy)propanoic acid] |  |  |  |  |  |  | 4.70 to 5.22 | ++ (++ means 100-149) | > 5.70 | ++++ (++++ means 200-250%) | + (+ means >277) | < 5 | ++++ (++++ means <50) | > 100 | > 5.60 |  |  |  |  | 
O=C(/C=C/C(=O)OC1CCCCCCC1)OCCc1nnn[nH]1 [Example 5, 2-(1H-tetrazol-5-yl)ethyl cyclooctyl fumarate] |  |  |  |  |  |  | 4.00 to 4.70 | + (+ means >17.1-99) | 5.22 to 5.68 | +++ (+++ means 150-199%) | + (+ means >277) | < 5 | ++ (++ means 150-277) | 5 to 29 | 5.21 to 5.60 |  |  |  |  | 
O=C(O)/C=C/C(=O)OC1(c2ccc(C(F)(F)F)cc2)COC1 [Intermediate 18, (E)-4-oxo-4-((3-(4-(trifluoromethyl)phenyl)oxetan-3-yl)oxy)but-2-enoic acid] | ++ (++ means >30-110) | 30 to 100 | ++ (++ means >30-110) | 30 to 100 | 4.52 to 5.22 | 4.52 to 5.22 |  |  |  |  |  |  |  |  |  |  |  |  |  | 
O=C(O)CCOC(=O)/C=C/C(=O)OC1(c2ccc(C(F)(F)F)cc2)CCC1 [Example 16, (E)-3-(4-oxo-4-(1-(4-(trifluoromethyl)phenyl)cyclobutoxy)but-2-enoyloxy)propanoic acid] |  |  |  |  |  |  |  |  |  |  | + (+ means >277) | < 5 | +++ (+++ means 50-149) | 5 to 29 | 5.21 to 5.60 | > 5.60 |  |  |  | 
O=C(/C=C/C(=O)OC1(C(=O)O)CC1)OC1CCCCCCC1 [Example 8, (E)-1-((4-(cyclooctyloxy)-4-oxobut-2-enoyl)oxy)cyclopropane-1-carboxylic acid] |  |  |  |  |  |  | 4.00 to 4.70 | ++ (++ means 100-149) | > 5.70 | ++++ (++++ means 200-250%) | + (+ means >277) | < 5 | +++ (+++ means 50-149) | 5 to 29 | > 5.60 |  |  |  |  | 
O=C(O)/C=C/C(=O)OC1CCCCCC1 [Intermediate 8, (E)-4-(cycloheptyloxy)-4-oxobut-2-enoic acid] | ++ (++ means >30-110) | 30 to 100 | +++ (+++ means >15-30) | 30 to 100 | 4.30 to 4.52 |  |  |  |  |  |  |  |  |  |  |  | 4.32 to 4.64 | +++ (+++ means >114-150%) | > 4.64 | ++++ (++++ means >150%)
